This passage reports IC50 results from patent publication US20100029609A1 (priority 2006, published 2010).

T1 sequence (P21453 whole entry): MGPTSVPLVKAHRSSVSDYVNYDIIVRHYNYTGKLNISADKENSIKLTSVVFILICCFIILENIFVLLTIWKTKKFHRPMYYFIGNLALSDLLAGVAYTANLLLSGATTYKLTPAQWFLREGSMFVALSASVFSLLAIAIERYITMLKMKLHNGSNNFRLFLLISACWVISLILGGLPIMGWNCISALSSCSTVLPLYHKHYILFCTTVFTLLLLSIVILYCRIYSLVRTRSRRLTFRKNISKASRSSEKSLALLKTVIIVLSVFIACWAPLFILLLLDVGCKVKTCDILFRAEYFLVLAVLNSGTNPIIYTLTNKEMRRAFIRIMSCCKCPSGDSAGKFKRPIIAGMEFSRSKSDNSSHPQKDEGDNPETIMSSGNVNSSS

This test concerns the target T1, human S1P1 receptors (Homo sapiens, UniProt P21453).
T1 construct: expressed in transfected cells; host or cells: HeLa (human cervix carcinoma, ATCC CCL2), HeLa-S1P1/Gα16 cell clone 1
Nature of the test: Human S1P Receptor Calcium FLIPR Antagonist Assay, HeLa Gα16 S1P1. The format is cell-based. As to conditions: HeLa-S1P1/Gα16 cells; antagonism of Ca2+ signal of probing agonist GNF-AC-1 at EC80. The text has this:
Human S1P Receptor Calcium FLIPR Antagonist Assays
The assay measures intracellular changes of Ca^2+ mediated by the synthetic probing agonist 3-{[2-(2-Trifluoromethyl-biphenyl-4-yl)-benzo[b]thiophen-5-ylmethyl]-amino}-propionic acid (GNF-AC-1) in the HeLa-S1P1/Gα16 cell clone 1: HeLa (human cervix carcinoma, ATCC CCL2) cells stably expressing N-terminally myc-tagged human S1P1 receptors (GenBank™ accession No. NM_001400; UNIPROT P21453) and promiscuous Gα16 protein (GenBank™ accession number M63904, Swissprot P30679) are cultured at 37° C., 5% CO2, and 95% relative humidity. The cells are plated in 384 well black plates (10,000 cells per well). After 24 hours the cells are loaded with Fluo4-AM (1.6 μM in HBSS and 2.5 mM probenicid) for 1 hour at 37° C. After washing, the cells are transferred to the FLIPR. The test compounds are added at different concentrations (≦30 μM) in HBSS in the presence of 0.1% BSA and changes in fluorescence are recorded (indication of agonism). The probing agonist is added 15 minutes afterwards to the wells at a concentration giving 80% of the maximal activity (EC80). After each addition time points are collected as follows: 20 time points (2 seconds) before the addition of the agonist (Fmin) and 60 time points (1 or 2 seconds) after the addition of the probing agonist. This allows the determination of the maximal fluorescence (Fmax). The ratio (Fmax-Fmin)/Fmin is plotted against the log of the concentration of the test compounds and the IC50 (relative antagonism) is determined with the help of XLfit-4 software. […] A dose response curve of the probing agonist is determined on each plate in parallel. The compounds of the invention are typically active in this assay at a concentration ranging typically from <1 nM to 30 μM, usually from less than 1 nanomolar to 1 micromolar.
By IC50 is commonly meant the concentration at which inhibition is half-maximal. As for `Cc1cc(S(=O)(=O)Nc2cccc(-c3cc(C)c(C(=O)N[C@@H](CO)C(=O)O)c(C)c3)c2)c(C)cc1Cl` [Example 131, (S)-2-{[3′-(4-Chloro-2,5-dimethyl-benzenesulfonylamino)-3,5-dimethyl-biphenyl-4-carbonyl]-amino}-3-hydroxy-propionic acid], the concentration for half-maximal inhibition (IC50) amounted to 0.6 nM.
For the compound `Cc1cc(S(=O)(=O)Nc2cccc(-c3cc(C)c(C(=O)N[C@@H](C)C(=O)O)c(C)c3)c2)c(C)cc1Cl` [Example 132, (S)-2-{[3′-(4-Chloro-2,5-dimethyl-benzenesulfonylamino)-3,5-dimethyl-biphenyl-4-carbonyl]-amino}-propionic acid], the 50% inhibitory concentration (IC50) came out at 1.1 nM.
As for `Cc1cc(S(=O)(=O)Nc2cccc(-c3cc(C)c(C(=O)N[C@H](CO)C(=O)O)c(C)c3)c2)c(C)cc1Cl` [Example 133, (R)-2-{[3′-(4-Chloro-2,5-dimethyl-benzenesulfonylamino)-3,5-dimethyl-biphenyl-4-carbonyl]-amino}-3-hydroxy-propionic acid], the half-inhibitory concentration (IC50) stood at 3.5 nM.
As to `Cc1cc(S(=O)(=O)Nc2cccc(-c3cc(C)c(C(=O)N[C@H](C)C(=O)O)c(C)c3)c2)c(C)cc1Cl` [Example 134, (R)-2-{[3′-(4-Chloro-2,5-dimethyl-benzenesulfonylamino)-3,5-dimethyl-biphenyl-4-carbonyl]-amino}-propionic acid], the concentration for half-maximal inhibition (IC50) was 7 nM.
Under `CC[C@H](NC(=O)c1c(C)cc(-c2cccc(NS(=O)(=O)c3cc(C)c(Cl)cc3C)c2)cc1C)C(=O)O` [Example 135, (S)-2-{[3′-(4-Chloro-2,5-dimethyl-benzenesulfonylamino)-3,5-dimethyl-biphenyl-4-carbonyl]-amino}-butyric acid] stands 1.7 nM; under `COC[C@H](NC(=O)c1c(C)cc(-c2cccc(NS(=O)(=O)c3cc(C)c(Cl)cc3C)c2)cc1C)C(=O)O` [Example 136, (S)-2-{[3′-(4-Chloro-2,5-dimethyl-benzenesulfonylamino)-3,5-dimethyl-biphenyl-4-carbonyl]-amino}-3-methoxy-propionic acid], 1.7 nM; under `Cc1cc(S(=O)(=O)Nc2cccc(-c3cc(C)c(C(=O)NCC(=O)O)c(C)c3)c2)c(C)cc1Cl` [Example 137, {[3′-(4-Chloro-2,5-dimethyl-benzenesulfonylamino)-3,5-dimethyl-biphenyl-4-carbonyl]-amino}-acetic acid], 1 nM.
Under `Cc1cc(S(=O)(=O)Nc2cccc(-c3cc(C)c(C(=O)N(C)[C@@H](CO)C(=O)O)c(C)c3)c2)c(C)cc1Cl` [Example 138, (S)-2-{[3′-(4-Chloro-2,5-dimethyl-benzenesulfonylamino)-3,5-dimethyl-biphenyl-4-carbonyl]-methyl-amino}-3-hydroxy-propionic acid] stands 1.1 nM.
Under `Cc1cc(S(=O)(=O)Nc2cccc(-c3cc(C)c(C(=O)N(C)[C@@H](C)C(=O)O)c(C)c3)c2)c(C)cc1Cl` [Example 139, (S)-2-{[3′-(4-Chloro-2,5-dimethyl-benzenesulfonylamino)-3,5-dimethyl-biphenyl-4-carbonyl]-methyl-amino}-propionic acid] stands 1.1 nM; under `Cc1cc(S(=O)(=O)Nc2cccc(-c3cc(C)c(C(=O)N[C@@H](CN)C(=O)O)c(C)c3)c2)c(C)cc1Cl` [Example 142, (S)-3-Amino-2-{[3′-(4-chloro-2,5-dimethyl-benzenesulfonylamino)-3,5-dimethyl-biphenyl-4-carbonyl]-amino}-propionic acid], 5.5 nM.
On to `Cc1cc(S(=O)(=O)Nc2cccc(-c3cc(C)c(C(=O)N[C@H](CN)C(=O)O)c(C)c3)c2)c(C)cc1Cl` [Example 143, (R)-3-Amino-2-{[3′-(4-chloro-2,5-dimethyl-benzenesulfonylamino)-3,5-dimethyl-biphenyl-4-carbonyl]-amino}-propionic acid], for which the half-maximal inhibitory concentration (IC50) stood at 5 nM.
Consider `Cc1cc(S(=O)(=O)Nc2cccc(-c3cc(C)c(C(=O)NC4(C(=O)O)CN(C(=O)OC(C)(C)C)C4)c(C)c3)c2)c(C)cc1Cl` [Example 144, 3-{[3′-(4-Chloro-2,5-dimethyl-benzenesulfonylamino)-3,5-dimethyl-biphenyl-4-carbonyl]-amino}-azetidine-1,3-dicarboxylic acid mono-tert-butyl ester], for which the IC50 was found to be 4 nM.
Take `Cc1cc(S(=O)(=O)Nc2cccc(-c3cc(C)c(C(=O)NC4(C(=O)O)CNC4)c(C)c3)c2)c(C)cc1Cl` [Example 145, 3-{[3′-(4-Chloro-2,5-dimethyl-benzenesulfonylamino)-3,5-dimethyl-biphenyl-4-carbonyl]-amino}-azetidine-3-carboxylic acid]: the IC50 was determined as 2 nM.
Consider `Cc1cc(S(=O)(=O)Nc2cccc(-c3cc(C)c(C(=O)NC4(C(=O)O)CCOCC4)c(C)c3)c2)c(C)cc1Cl` [Example 146, 4-{[3′-(4-Chloro-2,5-dimethyl-benzenesulfonylamino)-3,5-dimethyl-biphenyl-4-carbonyl]-amino}-tetrahydro-pyran-4-carboxylic acid], for which the IC50 turned out to be 2 nM.
With `Cc1cc(S(=O)(=O)Nc2cccc(-c3cc(C)c(C(=O)NC4(C(=O)O)CCC4)c(C)c3)c2)c(C)cc1Cl` [Example 147, 1-{[3′-(4-Chloro-2,5-dimethyl-benzenesulfonylamino)-3,5-dimethyl-biphenyl-4-carbonyl]-amino}-cyclobutanecarboxylic acid], the IC50 is 3.5 nM.
Turning to `Cc1cc(S(=O)(=O)Nc2cccc(-c3cc(C)c(C(=O)NC(C)(C)C(=O)O)c(C)c3)c2)c(C)cc1Cl` [Example 148, 2-{[3′-(4-Chloro-2,5-dimethyl-benzenesulfonylamino)-3,5-dimethyl-biphenyl-4-carbonyl]-amino}-2-methyl-propionic acid], the half-inhibitory concentration (IC50) was 5 nM.
With `Cc1cc(S(=O)(=O)Nc2cccc(-c3cc(C)c(C(=O)NC4(C(=O)O)CC4)c(C)c3)c2)c(C)cc1Cl` [Example 149, 1-{[3′-(4-Chloro-2,5-dimethyl-benzenesulfonylamino)-3,5-dimethyl-biphenyl-4-carbonyl]-amino}-cyclopropanecarboxylic acid] the figure was 1.7 nM; with `Cc1cc(S(=O)(=O)Nc2cccc(-c3cc(C)c(C(=O)NC4(C(=O)O)CN(C)C4)c(C)c3)c2)c(C)cc1Cl` [Example 150, 3-{[3′-(4-Chloro-2,5-dimethyl-benzenesulfonylamino)-3,5-dimethyl-biphenyl-4-carbonyl]-amino}-1-methyl-azetidine-3-carboxylic acid], 1.6 nM; with `Cc1cc(S(=O)(=O)Nc2cccc(-c3cc(C)c(C(=O)N[C@@H](C)C(N)=O)c(C)c3)c2)c(C)cc1Cl` [Example 151, 3′-(4-Chloro-2,5-dimethyl-benzenesulfonylamino)-3,5-dimethyl-biphenyl-4-carboxylic acid ((S)-1-carbamoyl-ethyl)-amide], 8 nM.
With `Cc1cc(S(=O)(=O)Nc2cccc(-c3cc(C)c(C(=O)N[C@@H](CO)C(N)=O)c(C)c3)c2)c(C)cc1Cl` [Example 153, 3′-(4-Chloro-2,5-dimethyl-benzenesulfonylamino)-3,5-dimethyl-biphenyl-4-carboxylic acid ((S)-1-carbamoyl-2-hydroxy-ethyl)-amide] the figure was 3 nM; with `CCc1cc(-c2cccc(NS(=O)(=O)c3cc(C)c(Cl)cc3C)c2)ccc1C(=O)N[C@@H](C)C(=O)O` [Example 154, (S)-2-{[3′-(4-Chloro-2,5-dimethyl-benzenesulfonylamino)-3-ethyl-biphenyl-4-carbonyl]-amino}-propionic acid], 1.7 nM.
Under `Cc1cc(S(=O)(=O)Nc2cccc(-c3cc(C)c(C(=O)NC4(C(=O)O)CCN(C)CC4)c(C)c3)c2)c(C)cc1Cl` [Example 155, 4-{[3′-(4-Chloro-2,5-dimethyl-benzenesulfonylamino)-3,5-dimethyl-biphenyl-4-carbonyl]-amino}-1-methyl-piperidine-4-carboxylic acid] stands 2 nM; under `Cc1cc(S(=O)(=O)Nc2cccc(-c3ccc(CN[C@H](CO)C(=O)O)cc3)c2)c(C)cc1Cl` [Example 157, (R)-2-{[3′-(4-Chloro-2,5-dimethyl-benzenesulfonylamino)-biphenyl-4-ylmethyl]-amino}-3-hydroxy-propionic acid], 4.7 nM.
